What is called pIC50 is the negative decadic logarithm of the IC50, by convention in mol/L.

pIC50: −log10 of the molar value. Some results are limits rather than exact numbers.

The values that follow come from patent publication US8895585B2, “Nicotinamide derivative or salt thereof” (FUJIFILM Corporation, priority 2010, dated 2014).

The first test addresses T1, glutathione S-transferase (GST)-fused full-length human Syk protein (Homo sapiens, UniProt P43405).
T1 construct: (GST)-fused full-length human Syk protein; GST (glutathione S-transferase); purchased Carna Biosciences
As to the kind of experiment: Syk enzyme assay. Type of test: biochemical. Particulars: Syk enzyme assay, Test Example 1; read-out: IC50 of Syk-inhibitory activity. The gist of the method:
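Baculovirus-expressed enzyme (1.2 ng) was preincubated with compound in HEPES pH 7.0/MgCl2/DTT buffer, 2 min shaking then 13 min at room temperature. Biotin-EDPDYEWPSA-NH2 (0.4 μM final) and ATP (27 μM final) were added for 40 min at room temperature. EDTA stop, streptavidin-XL/PT66-K TR-FRET at 615/665 nm gave IC50.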
For the compound `NC(=O)c1cc(F)c(NC2CCCCC2N)nc1Nc1ccnc(-c2ccc3cccnc3c2)c1` (centres unmarked) [Example 002-192], the pIC50 was above 8.00. For the compound `NC(=O)c1cc(F)c(NC2CCCCC2N)nc1Nc1ccnc(-c2ccc3ccncc3c2)c1` (centres unmarked) [Example 002-194], the pIC50 is above 8.00. Consider `NC(=O)c1cc(F)c(NC2CCCCC2N)nc1Nc1cnc2oc3ccccc3c2c1` (centres unmarked) [Example 002-195], for which the pIC50 was above 8.00. Take `Cn1cc(Nc2nc(NC3CCCCC3N)c(F)cc2C(N)=O)ccc1=O` (centres unmarked) [Example 002-202]: the negative logarithm of the IC50 (pIC50) was 6.00 to 7.00. Same read-out and setting: then `COc1ncc(Nc2nc(NC3CCCCC3N)c(F)cc2C(N)=O)cc1Cl` (centres unmarked) [Example 002-203], with 7.30 to 8.00; and `NC(=O)c1cc(F)c(N[C@@H]2CCCC[C@@H]2N)nc1Nc1cncnc1` [Example 004-001], with 6.00 to 7.00; and `NC(=O)c1cc(F)c(N[C@@H]2CCCC[C@@H]2N)nc1Nc1cccc2c1CNC2=O` [Example 004-009], with above 8.00. In the case of `CNC(=O)c1cncc(Nc2nc(N[C@@H]3CCCC[C@@H]3N)c(F)cc2C(N)=O)c1` [Example 004-010], the pIC50 is 7.30 to 8.00. Regarding `CN(C)C(=O)c1cncc(Nc2nc(N[C@@H]3CCCC[C@@H]3N)c(F)cc2C(N)=O)c1` [Example 004-015], the pIC50 was 6.00 to 7.00. For `NC(=O)c1cc(F)c(N[C@@H]2CCCC[C@@H]2N)nc1Nc1cnc2nccnc2c1` [Example 004-021], the negative logarithm of the IC50 (pIC50) was 6.00 to 7.00. For the compound `CC(=O)N(C)c1cccc2cc(Nc3nc(N[C@@H]4CCCC[C@@H]4N)c(F)cc3C(N)=O)cnc12` [Example 004-034], the pIC50 was 7.00 to 7.30.

As for `NC(=O)c1cc(F)c(N[C@@H]2CCCC[C@@H]2N)nc1Nc1ccnc2c1ccn2-c1ccccc1` [Example 004-038], the pIC50 is above 8.00. As for `NC(=O)c1cc(F)c(N[C@@H]2CCCC[C@@H]2N)nc1Nc1cncc(Oc2ccccc2)c1` [Example 004-041], the pIC50 was 7.00 to 7.30. On the same count and under the same terms, then `NC(=O)c1cc(F)c(N[C@H](Cc2ccccc2)C(N)=O)nc1Nc1ccnc2c1ccn2CCN1CCOCC1` [Example 004-045], with 7.30 to 8.00; and `CC(=O)Nc1cccc2cc(Nc3nc(N[C@H](Cc4ccccc4)C(N)=O)c(F)cc3C(N)=O)cnc12` [Example 004-047], with 7.30 to 8.00. For `NC(=O)c1cc(F)c(N[C@H](Cc2ccccc2)C(N)=O)nc1Nc1ccnc2[nH]ccc12` [Example 004-063], the pIC50 is above 8.00. Still for that read-out and setting: then `Cn1ccc2c(Nc3nc(N[C@@H]4CCCC[C@@H]4N)c(F)cc3C(N)=O)cc(C(F)(F)F)cc21` [Example 004-086], with above 8.00. In the case of `NC(=O)c1cc(F)c(N[C@@H]2CCCC[C@@H]2N)nc1Nc1cc(C(F)(F)F)cc2c1ccn2CCN1CCOCC1` [Example 004-087], the pIC50 is above 8.00.

Regarding `COCCn1ccc2c(Nc3nc(N[C@@H]4CCCC[C@@H]4N)c(F)cc3C(N)=O)cc(C(F)(F)F)cc21` [Example 004-088], the negative logarithm of the IC50 (pIC50) was above 8.00. As for `NC(=O)c1cc(F)c(N[C@@H]2CCCC[C@@H]2N)nc1Nc1cncc(N2CCCC2=O)c1` [Example 004-107], the pIC50 was 7.30 to 8.00. As to `CCOC(=O)c1c(F)cc2c(Nc3nc(N[C@@H]4CCCC[C@@H]4N)c(F)cc3C(N)=O)cccn12` [Example 004-115], the pIC50 is above 8.00. The same measure, in the same setting: next, `COCCNc1cccc2cc(Nc3nc(N[C@@H]4CCCC[C@@H]4N)c(F)cc3C(N)=O)cnc12` [Example 004-122]: above 8.00; `CN(C)c1ccc2cc(Nc3nc(N[C@@H]4CCCC[C@@H]4N)c(F)cc3C(N)=O)cnc2c1` [Example 004-126]: 7.30 to 8.00; `CCOCCOCCNc1cccc2cc(Nc3nc(N[C@@H]4CCCC[C@@H]4N)c(F)cc3C(N)=O)cnc12` [Example 004-133]: 7.30 to 8.00. Same read-out and setting: then `C[C@@H]1CN(c2cncc(Nc3nc(N[C@@H]4CCCC[C@@H]4N)c(F)cc3C(N)=O)c2)C[C@H](C)O1` [Example 004-180], with 7.30 to 8.00; and `NC(=O)c1cc(F)c(N[C@@H]2CCCC[C@@H]2N)nc1Nc1cncc(-c2ccccc2OCC2CC2)c1` [Example 004-184], with 7.30 to 8.00; and `NC(=O)c1cc(F)c(N[C@@H]2CCCC[C@@H]2N)nc1Nc1ccn2cnnc2c1` [Example 004-212], with 7.30 to 8.00. Regarding `CC(=O)Nc1cccc(-c2cncc(Nc3nc(N[C@@H]4CCCC[C@@H]4N)c(F)cc3C(N)=O)c2)c1` [Example 004-223], the negative logarithm of the IC50 (pIC50) was above 8.00.

Take `CC(=O)Nc1ccc(-c2cncc(Nc3nc(N[C@@H]4CCCC[C@@H]4N)c(F)cc3C(N)=O)c2)cc1` [Example 004-224]: the pIC50 is above 8.00. For `COc1cc(Nc2nc(N[C@@H]3CCCC[C@@H]3N)c(F)cc2C(N)=O)cnc1N1CCOCC1` [Example 004-233, 6-(((1R,2S)-2-aminocyclohexyl)amino)-5-fluoro-2-((5-methoxy-6-morpholinopyridin-3-yl)amino)nicotinamide], the negative logarithm of the IC50 (pIC50) was 6.00 to 7.00.

In the case of `NC(=O)c1cc(F)c(N[C@@H]2CCCC[C@@H]2N)nc1Nc1cnc(N2CCOCC2)c2[nH]ccc12` [Example 004-234, 6-(((1R,2S)-2-aminocyclohexyl)amino)-5-fluoro-2-((7-morpholino-1H-pyrrolo[2,3-c]pyridin-4-yl)amino)nicotinamide], the pIC50 is 7.30 to 8.00. As for `NCCNc1nc(Nc2cccc(Cl)c2)c(C(N)=O)cc1F` [Example 006-006, 6-((2-aminoethyl)amino)-2-(3-chlorophenylamino)-5-fluoronico-tinamide], the negative logarithm of the IC50 (pIC50) is 6.00 to 7.00.

For `NCCNc1nc(Nc2cc(Cl)cc(Cl)c2)c(C(N)=O)cc1F` [Example 006-007, 6-((2-aminoethyl)amino)-2-((3,5-dichlorophenyl)amino)-5-fluoro-nicotinamide], the negative logarithm of the IC50 (pIC50) is 7.00 to 7.30. As for `CCNc1nc(Nc2ccc3cn[nH]c3c2)c(C(N)=O)cc1F` [Example 006-018, 6-(ethylamino)-5-fluoro-2-((1H-indazol-6-yl)amino)nicotinamide], the pIC50 was 7.00 to 7.30. The same measure, in the same setting: next, `CCNc1nc(Nc2cnc3ccccc3c2)c(C(N)=O)cc1F` [Example 006-020, 6-(ethylamino)-5-fluoro-2-(quinolin-3-ylamino)nicotinamide]: 6.00 to 7.00; `CCNc1nc(Nc2ccc3ncsc3c2)c(C(N)=O)cc1F` [Example 006-042, 2-((benzo[d]thiazol-6-yl)amino)-6-(ethylamino)-5-fluoronicotinamide]: 6.00 to 7.00; `NCCNc1nc(Nc2cncc(-c3ccccc3)c2)c(C(N)=O)cc1F` [Example 006-089, 6-((2-aminoethyl)amino)-5-fluoro-2-((5-phenylpyridin-3-yl)amino)nicotinamide]: 7.30 to 8.00.

On to `Cn1cccc1-c1cncc(Nc2nc(NCCN)c(F)cc2C(N)=O)c1` [Example 006-090, 6-((2-aminoethyl)amino)-5-fluoro-2-((5-(1-methyl-1H-pyrrol-2-yl)pyridin-3-yl)amino)nicotinamide], for which the pIC50 is 6.00 to 7.00.

With `Cc1ccc(Nc2nc(NC[C@H](C)N)c(F)cc2C(N)=O)cn1` [Example 006-095, (S)-6-((2-aminopropyl)amino)-5-fluoro-2-((6-methylpyridin-3-yl)amino)nicotinamide], the pIC50 is 6.00 to 7.00. As for `COc1cc(Nc2nc(N[C@H]3CCCC[C@H]3N)c(F)cc2C(N)=O)cc(OC)n1` [Example 006-115, 6-((1S,2R)-2-aminocyclohexylamino)-2-((2,6-dimethoxypyridin-4-yl)amino)-5-fluoronicotinamide], the negative-log IC50 (pIC50) was 6.00 to 7.00. In the case of `Cc1cncc(Nc2nc(NC[C@@H](N)c3ccccc3)c(F)cc2C(N)=O)c1` [Example 006-118, (S)-6-((2-amino-2-phenylethyl)amino)-5-fluoro-2-((5-methylpyridin-3-yl)amino)nicotinamide], the pIC50 was 6.00 to 7.00. Turning to `NC(=O)c1cc(F)c(NC[C@@H](N)c2ccccc2)nc1Nc1cccc(-n2nccn2)c1` [Example 006-120, (S)-2-((3-(2H-1,2,3-triazol-2-yl)phenyl)amino)-6-((2-amino-2-phenylethyl)amino)-5-fluoronicotinamide], the negative logarithm of the IC50 (pIC50) is 7.30 to 8.00. Same read-out and setting: next, `NC[C@H](Nc1nc(Nc2ccc3cccnc3c2)c(C(N)=O)cc1F)c1ccccc1` [Example 006-134, (R)-6-((2-amino-1-phenylethyl)amino)-5-fluoro-2-(quinolin-7-ylamino)nicotinamide]: 7.30 to 8.00.

The test is the same for the next values; noted with them: read-out: Syk-inhibitory activity (IC50).
For the compound `Cc1cccc(Nc2nc(NCCN)c(F)cc2C(N)=O)c1` [Example 6-2, 6-((2-aminoethyl)amino)-5-fluoro-2-(3-methylphenylamino)nico-tinamide], the pIC50 is at least 6.00. For `CCNc1nc(Nc2ccc3cn[nH]c3c2)c(C(N)=O)cc1F` [Example 6-18, 6-(ethylamino)-5-fluoro-2-((1H-indazol-6-yl)amino)nicotinamide], the negative-log IC50 (pIC50) is at least 6.00. In the case of `CCNc1nc(Nc2cnc3ccccc3c2)c(C(N)=O)cc1F` [Example 6-20, 6-(ethylamino)-5-fluoro-2-(quinolin-3-ylamino)nicotinamide], the negative logarithm of the IC50 (pIC50) is at least 6.00. On to `Cc1nc2ccc(Nc3nc(NCCN)c(F)cc3C(N)=O)cc2s1` [Example 6-21, 6-((2-aminoethyl)amino)-5-fluoro-2-((2-methylbenzo[d]thiazol-6-yl)amino)nicotinamide], for which the negative-log IC50 (pIC50) was at least 6.00.

As to `Cc1nc2ccc(Nc3nc(NCCN)c(F)cc3C(N)=O)cc2o1` [Example 6-23, 6-((2-aminoethyl)amino)-5-fluoro-2-((2-methylbenzo[d]oxazol-6-yl)amino)nicotinamide], the negative-log IC50 (pIC50) is at least 6.00. `CC(=O)Nc1cccc(Nc2nc(NCCN)c(F)cc2C(N)=O)c1` [Example 6-24, 2-((3-acetylaminophenyl)amino)-6-((2-aminoethyl)amino)-5-fluoronicotinamide]: the pIC50 is at least 6.00.

For the compound `Cn1ncc2ccc(Nc3nc(NCCN)c(F)cc3C(N)=O)cc21` [Example 6-27, 6-((2-aminoethyl)amino)-5-fluoro-2-((1-methyl-1H-indazol-6-yl)amino)nicotinamide], the pIC50 is at least 6.00.
